Measured values reported in ChEMBL document CHEMBL5058564, “EUbOPEN Chemogenomics Library 2 (Incucyte)” (2022).

Legend:
Assay type in all cases: toxicity, cell-based
[1] = test system: Fibroblast; assay: Incucyte cell viability with human fibroblast; conditions: 10 µM, compound concentration 10 uM
[2] = test system: HEK-293T; assay: Incucyte cell viability with HEK293T; conditions: human, 10 µM, compound concentration 10 uM
[3] = test system: U2OS; assay: Incucyte cell viability with U2OS; conditions: human, 10 µM, compound concentration 10 uM
[4] = 0 h, replicate number 1, timepoint 0 hours
[5] = 0 h, replicate number 2, timepoint 0 hours
[6] = 6 h, replicate number 1, timepoint 6 hours
[7] = 12 h, replicate number 1, timepoint 12 hours
[8] = 12 h, replicate number 2, timepoint 12 hours
[9] = 18 h, replicate number 1, timepoint 18 hours
[10] = 18 h, replicate number 2, timepoint 18 hours
[11] = 24 h, replicate number 1, timepoint 24 hours
[12] = 24 h, replicate number 2, timepoint 24 hours
[13] = 6 h, replicate number 2, timepoint 6 hours
Also: unitless GR value; below 1 slowed growth and below 0 cell loss.

SMILES | Growth Rate [1, 4] | Growth Rate [1, 5] | Growth Rate [1, 6] | Growth Rate [1, 7] | Growth Rate [1, 9] | Growth Rate [1, 11] | Growth Rate [2, 6] | Growth Rate [2, 7] | Growth Rate [2, 9] | Growth Rate [3, 12] | Growth Rate [2, 8] | Growth Rate [2, 10] | Growth Rate [2, 11] | Growth Rate [3, 10] | Growth Rate [2, 12] | Growth Rate [3, 4] | Growth Rate [3, 6] | Growth Rate [3, 8] | Growth Rate [3, 9] | Growth Rate [3, 11] | further results
CC(C)OC(=O)N1CCC(Oc2ncnc3c2cnn3-c2ccc(S(C)(=O)=O)cc2F)CC1 | 0.77 | -0.13 | 0.15 | 0.04 | 0.38 | 0.47 | 0.81 | 0.82 | 0.98 | 0.97 |  |  |  |  |  |  |  |  |  |  | Growth Rate [1, 8]: 0.61; Growth Rate [1, 10]: 0.58; Growth Rate [1, 12]: 0.69; Growth Rate [3, 5]: -1; Growth Rate [3, 13]: 0.7
COc1ccncc1C(=O)NC(=O)Nc1ccc(-c2ccccc2)c(C(F)(F)F)c1 | 0.48 | 0.72 | -0.12 | 0.58 | 0.7 | 0.92 | 0.25 | 0.48 | 0.58 | 1 | 0.74 | 0.86 | 0.69 | 0.94 |  |  |  |  |  |  | Growth Rate [1, 13]: 0.15; Growth Rate [2, 13]: 0.96; Growth Rate [3, 13]: 0.74
Cc1cc(C)cc(C(=O)NOCCCCCC(=O)NO)c1 | -0.03 | 0.7 |  | 0.99 |  | 0.77 |  | 0.54 | 0.24 | 0.36 | 0.67 | 0.37 | 0.15 | 0.4 | 0.32 | 0.03 | 0.82 | 0.5 | 0.34 | 0.37 | Growth Rate [2, 5]: 0.38; Growth Rate [3, 5]: -0.5; Growth Rate [3, 13]: 0.51; Growth Rate [3, 7]: 0.43
C[C@@](Cc1c[nH]c2ccccc12)(NC(=O)Nc1ccc([N+](=O)[O-])cc1)C(=O)NCC1(c2ccccn2)CCCCC1 |  |  | -0.69 | -0.66 | -0.63 | -0.6 | -0.16 | -0.39 | -0.33 | -0.21 | -0.14 | -0.15 | -0.26 | -0.3 | -0.13 | 0.29 | 0.28 | -0.2 | -0.21 | -0.26 | Growth Rate [1, 13]: -0.88; Growth Rate [1, 8]: -0.59; Growth Rate [1, 10]: -0.53; Growth Rate [1, 12]: -0.51; Growth Rate [2, 13]: -0.01; Growth Rate [3, 13]: 0.12; Growth Rate [3, 7]: -0.03
Cc1cc(=O)n(C)c2cc(N3C(=O)CC[C@H](NS(=O)(=O)CC(C)C)[C@H]3c3ccc(Cl)cc3)ccc12 |  |  | -0.91 | -0.73 | -0.76 | -0.65 | -0.08 | 0.15 | 0.21 |  | 0.9 | 0.76 | 0.18 |  | 0.8 | -0.56 | 0.78 | 0.96 | 0.5 | 0.7 | Growth Rate [1, 13]: -0.68; Growth Rate [1, 8]: -0.53; Growth Rate [1, 10]: -0.4; Growth Rate [1, 12]: -0.38; Growth Rate [2, 5]: 0.38; Growth Rate [3, 5]: -0.09; Growth Rate [3, 7]: 0.8
Nc1nc(-c2ccco2)c2cnn(Cc3ccccc3F)c2n1 |  |  | -0.86 | -0.81 | -0.75 | -0.66 | -0.23 | -0.22 | -0.17 | 0.48 | -0.25 | -0.05 | -0.12 | 0.48 | 0.12 | -0.81 | 0.66 | 0.27 | 0.95 | 0.89 | Growth Rate [1, 13]: -0.89; Growth Rate [1, 8]: -0.55; Growth Rate [1, 10]: -0.29; Growth Rate [1, 12]: -0.09; Growth Rate [2, 13]: -0.21; Growth Rate [3, 13]: 0.28
Cc1sc2c(c1C)C(c1ccc(Cl)cc1)=N[C@@H](CC(=O)NCCCCCCCCNC(=O)COc1cccc3c1C(=O)N(C1CCC(=O)NC1=O)C3=O)c1nnc(C)n1-2 (some centres undefined) | 0.46 |  | -0.54 | -0.48 | -0.47 | -0.37 | 0.68 | 0.13 | 0.02 | 0.7 | 0.04 | -0.02 | 0.01 | 0.72 | -0.06 | -0.31 | 0.38 | 0.65 | 0.5 | 0.4 | Growth Rate [1, 13]: -0.38; Growth Rate [1, 8]: -0.2; Growth Rate [1, 10]: -0.01; Growth Rate [1, 12]: -0.03; Growth Rate [2, 5]: 0.68; Growth Rate [3, 7]: 0.7
O=C(NCc1ccc(F)cc1)N1CCN2C(=O)OC(c3ccccc3)(c3ccccc3)C2C1 (centres undefined) | -0.48 | 0.83 |  |  |  | 0.67 | 0.88 |  | 1 | 0.97 |  |  | 0.92 | 0.99 |  |  | 0.37 |  |  |  | Growth Rate [1, 13]: 0.42; Growth Rate [3, 13]: 0.99
CCN1C(=CC(C)=O)Sc2ccc(OC)cc21 |  | 0.29 | -0.68 | 0.45 | 0.69 | 0.7 | 0.17 | 0.45 | 0.69 |  |  |  | 0.72 |  |  | -0.04 | 0.65 | 0.88 | 0.63 | 0.89 | Growth Rate [2, 5]: -1; Growth Rate [3, 5]: -0.03; Growth Rate [3, 7]: 0.7
COCCN1CCC(c2cc(CN(C)C(=O)c3cccc(Oc4ccccc4)c3)ccn2)CC1 | 0.94 |  | 0.77 |  |  |  | 0.44 | 0.83 | 0.81 |  | 0.93 | 0.92 | 1 | 0.97 | 0.89 | -0.65 | 0.63 | 0.87 | 0.67 | 0.93 | Growth Rate [2, 5]: 0.76; Growth Rate [3, 5]: -0.76; Growth Rate [3, 13]: 0.6; Growth Rate [3, 7]: 0.74
O=C(Nc1cc(-c2cn[nH]c2)ccc1N1CCOCC1)c1ccc(-c2ccc3ncccc3c2)o1 | 0.62 | -0.67 |  | 0.82 | 0.43 | 0.3 | -0.01 | -0.14 | 0 | 0.26 | 0.02 | 0.07 | 0.15 | 0.39 | 0.04 | 0.53 | 0.9 |  | 0.57 | 0.7 | Growth Rate [1, 8]: 0.89; Growth Rate [1, 10]: 0.89; Growth Rate [1, 12]: 0.83; Growth Rate [2, 5]: 0.28; Growth Rate [2, 13]: 0.26; Growth Rate [3, 7]: 0.6
CN(C)C(=O)N1CC[C@H](NC2=Nc3cc(F)ccc3N(CC(F)F)c3ccc(Cl)cc32)C1 |  | -0.03 | -0.43 | 0.6 | 0.62 | 0.32 | 0.94 | 0.82 | 0.89 |  | 0.77 | 0.79 | 0.83 | 0.92 | 0.88 |  |  | 0.92 |  |  | Growth Rate [1, 10]: 0.82; Growth Rate [1, 12]: 0.81; Growth Rate [2, 5]: 0.7; Growth Rate [2, 13]: 0.35
